Data on 11 compounds can be found in the Kinase Knowledgebase extract (Sharma et al. 2016).

SMILES strings stand for the structures. A value given as a limit tells only on which side of the number the result lay.

The target of this experiment is MAPK14 (human) (UniProt Q16539). Kind of experiment: Assessment of MAPK14 Kinase Activity by Fluorescence Anisotropy Kinase Binding Assay. In general terms: Polarisation of emitted light reports the rotation of a fluorescent probe.
MAPK14 (human), sequence (Q16539 whole entry, looked up): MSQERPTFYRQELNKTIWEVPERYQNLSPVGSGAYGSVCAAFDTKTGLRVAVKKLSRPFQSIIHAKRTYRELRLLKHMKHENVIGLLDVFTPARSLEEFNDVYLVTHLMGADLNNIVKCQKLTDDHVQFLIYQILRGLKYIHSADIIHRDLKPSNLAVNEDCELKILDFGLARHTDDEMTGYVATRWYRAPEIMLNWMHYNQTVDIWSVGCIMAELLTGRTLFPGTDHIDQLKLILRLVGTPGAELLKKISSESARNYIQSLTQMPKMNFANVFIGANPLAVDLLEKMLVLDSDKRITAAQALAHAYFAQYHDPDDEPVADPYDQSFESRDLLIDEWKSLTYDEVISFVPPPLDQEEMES
Consider `O=c1ccc2c(-c3ccccc3F)cccc2n1-c1ccc(F)cc1`, for which the half-inhibitory concentration (IC50) is < 1000 nM. Turning to `O=c1ccc2c(-c3ccc(F)cc3F)cccc2n1-c1ccc(F)cc1`, the IC50 is < 1000 nM.

For `O=c1ccc2c(-c3ccc(F)cc3)cccc2n1-c1ccc(F)cc1`, the 50% inhibitory concentration (IC50) is < 1000 nM.

Turning to `O=c1ccc2c(-c3ccccc3)nccc2[nH]1`, the IC50 was < 1000 nM. Take `COc1cc2c(ccc(=O)n2-c2ccccc2Cl)c(-c2ccccc2Cl)c1Br`: the Ki came to 12.6 nM.

`O=c1ccc2c(-c3ccccc3)nccc2n1Cc1ccccc1` had an inhibitory constant (Ki) of 20 nM. Still for that read-out and setting: the figure for `O=c1ccc2c(-c3ccccc3Cl)cc(NC(CO)CO)cc2n1-c1ccccc1Cl` is 20 nM; for `O=c1ccc2c(-c3ccccc3Cl)nc(Br)cc2n1-c1ccccc1Cl` it is 20 nM. As for `O=c1ccc2c(-c3ccc(F)cc3F)ccnc2n1-c1ccc(F)cc1`, the IC50 is < 1000 nM. Compound `O=c1ccc2c(-c3ccccc3Cl)nc(Cl)cc2n1-c1ccccc1Cl` registered a Ki of 20 nM.

On to `O=c1ccc2c(-c3ccc(F)cc3)ccnc2n1-c1ccc(F)cc1`, for which the IC50 is < 1000 nM.

Broadly, the IC50 is the point on the concentration scale where inhibition reaches its midpoint. Low readings indicate greater potency in that assay, high ones weaker potency in that assay. As a reminder, the Ki is the dissociation constant of the complex between target and ligand, obtained from inhibition or displacement. A high value points to a looser hold on the target.
